In EP0993437B1, “2-(4-BROMO OR 4-IODO PHENYLAMINO) BENZOIC ACID DERIVATIVES AND THEIR USE AS MEK INHIBITORS” (Warner-Lambert Company LLC, priority 1997, dated 1999) one finds IC50 data, which are given here for 18 compounds.

Broadly, the IC50 is the concentration that inhibits the measured activity by half.

The experiment deals with MEK. The experiment can be described thus: Cascade assay for inhibitors of the MAP kinase pathway (In Vitro). The experiment is classed as biochemical. How it is done: Incorporation of ^32P into myelin basic protein (MBP) was assayed in the presence of a glutathione S-transferase fusion protein containing p44MAP kinase (GST-MAPK) and a glutathione S-transferase fusion protein containing p45MEK (GST-MEK). The assay solution contained 20 mM HEPES, pH 7.4, 10 mM MgCl2, 1-mM MnCl2, 1 mM EGTA, 50 µM [γ-^32P]ATP, 10 µg GST-MEK, 0.5 µg GST-MAPK and 40 µg MBP in a final volume of 100 µL. […] Compounds were assessed at 10 µM for ability to inhibit incorporation of ^32P.
To ascertain whether compounds were inhibiting GST-MEK or GST MAPK, two additional protocols were employed. In the first protocol, compounds were added to tubes containing GST-MEK, followed by addition of GST-MAPK, MBP and [γ-^32P]ATP.
Consider `CCN(CC)C(=O)c1cc([N+](=O)[O-])ccc1Nc1ccc(I)cc1C` [Example 45, N,N-Diethyl-2-(4-iodo-2-methyl-phenylamino)-5-nitro-benzamide], for which the midpoint of inhibition, the IC50, lay at 1760 nM.

`CCCCNC(=O)c1ccc(F)cc1Nc1ccc(I)cc1C` [Example 46, N-Butyl-4-fluoro-2-(4-iodo-2-methyl-phenylamino)-benzamide] registered an IC50 of 1810 nM.

As to `CCN(CC)C(=O)c1cc(Cl)ccc1Nc1ccc(I)cc1C` [Example 47, 5-Chloro-N,N-diethyl-2-(4-iodo-2-methyl-phenylamino)-benzamide], the concentration for half-maximal inhibition (IC50) came to 1910 nM.

In turn, `Cc1cc(I)ccc1Nc1ccc(Br)cc1C(=O)N(C)C` [Example 48, 5-Bromo-2-(4-iodo-2-methyl-phenylamino)-N,N-dimethyl-benzamide] came in with an IC50 of 1940 nM.

As to `Cc1cc(I)ccc1Nc1ccc(Cl)cc1CO` [Example 50, [5-Chloro-2-(4-iodo-2-methyl-phenylamino)-phenyl]-methanol], inhibition was half-maximal at 179 nM (IC50).

The compound `Cc1cc(I)ccc1Nc1ccc([N+](=O)[O-])cc1CO` [Example 51, [2-(4-Iodo-2-methyl-phenylamino)-5-nitro-phenyl]-methanol] yielded an IC50 of 887 nM.

Consider `Cc1cc(I)ccc1Nc1ccc(Br)cc1CO` [Example 52, [5-Bromo-2-(4-iodo-2-methyl-phenylamino)-phenyl]-methanol], for which the IC50 was determined as 2350 nM. Against the preceding compound, the IC50 is about 2.6-fold higher.

Turning to `Cc1cc(I)ccc1Nc1ccc(Br)cc1C(=O)NCCCN1CCN(CCO)CC1` [Example 92, 5-Bromo-N-{3-[4-(2-hydroxy-ethyl)-piperazin-1-yl]-propyl}-2-(4-iodo-2-methyl-phenylamino)-benzamide], the concentration for half-maximal inhibition (IC50) is 253 nM.

Take `CCN(CC)CCNC(=O)c1cc(Cl)ccc1Nc1ccc(I)cc1C` [Example 93, 5-Chloro-N-(2-diethylamino-ethyl)-2-(4-iodo-2-methyl-phenylamino)-benzamide]: the IC50 came to 521 nM.

`Cc1cc(I)ccc1Nc1ccc([N+](=O)[O-])cc1C(=O)N1CCC(O)C1` (stereo not drawn) [Example 95, (3-Hydroxy-pyrrolidin-1-yl)-[2-(4-iodo-2-methyl-phenylamino)-5-nitro-phenyl]-methanone] registered an IC50 of 1000 nM.

In turn, `Cc1cc(I)ccc1Nc1ccc(Cl)cc1C(=O)NCCN1CCCC1` [Example 96, 5-Chloro-2-(4-iodo-2-methyl-phenylamino)-N-(2-pyrrolidin-1-yl-ethyl)-benzamide] gave a half-inhibitory concentration (IC50) of 374 nM.

The compound `Cc1cc(I)ccc1Nc1ccc(Br)cc1C(=O)N1CCC(O)C1` (stereo not drawn) [Example 100, [5-Bromo-2-(4-iodo-2-methyl-phenylamino)-phenyl]-(3-hydroxy-pyrrolidin-1-yl)-] had a 50% inhibitory concentration (IC50) of 1990 nM.

Compound `Cc1cc(I)ccc1Nc1ccc([N+](=O)[O-])cc1C(=O)NC1CCCCC1` [Example 184, N-Cyclohexyl-2-(4-iodo-2-methyl-phenylamino)-5-nitro-benzamide] showed an IC50 of 278 nM.

For `Cc1cc(I)ccc1Nc1ccc(Cl)cc1C(=O)NCCO` [Example 187, 5-Chloro-N-(2-hydroxy-ethyl)-2-(4-iodo-2-methyl-phenylamino)-benzamide], the IC50 was found to be 561 nM.

Compound `Cc1cc(I)ccc1Nc1ccc(Br)cc1C(=O)NCCO` [Example 188, 5-Bromo-N-(2-hydroxy-ethyl)-2-(4-iodo-2-methyl-phenylamino)-benzamide] displayed a half-inhibitory concentration (IC50) of 771 nM.

In turn, `Cc1cc(I)ccc1Nc1ccc([N+](=O)[O-])cc1C(=O)N(C)c1ccccc1` [Example 189, 2-(4-Iodo-2-methyl-phenylamino)-N-methyl-5-nitro-N-phenyl-benzamide] yielded an IC50 of 859 nM. The IC50 values of the last two compounds are within 1.5-fold of each other.

Take `Cc1cc(I)ccc1Nc1ccc(Cl)cc1C(=O)N(C)c1ccccc1` [Example 190, 5-Chloro-2-(4-iodo-2-methyl-phenylamino)-N-methyl-N-phenyl-benzamide]: the IC50 came out at 921 nM.

Turning to `Cc1cc(I)ccc1Nc1ccc(I)cc1C(=O)NCCO` [Example 191, N-(2-Hydroxy-ethyl)-5-iodo-2-(4-iodo-2-methyl-phenylamino)-benzamide], the half-inhibitory concentration (IC50) was 1360 nM.
